Results reported in publication PMC8165160, “Substrate Specificities and Inhibition Pattern of the Solute Carrier Family 10 Members NTCP, ASBT and SOAT” (Frontiers in Molecular Biosciences, 2021).
Structures can show the parent of a compound that is named as a salt. Where two headings read alike, the source gives them in different places.

Tests used:
NTCP = biological target: T1, NTCP (Homo sapiens, UniProt Q14973); assay: Transport inhibition in NTCP-HEK293 cells; conditions: substrate inhibitors, 1 min after 5 min preincubation
T1 sequence (Q14973 1-349): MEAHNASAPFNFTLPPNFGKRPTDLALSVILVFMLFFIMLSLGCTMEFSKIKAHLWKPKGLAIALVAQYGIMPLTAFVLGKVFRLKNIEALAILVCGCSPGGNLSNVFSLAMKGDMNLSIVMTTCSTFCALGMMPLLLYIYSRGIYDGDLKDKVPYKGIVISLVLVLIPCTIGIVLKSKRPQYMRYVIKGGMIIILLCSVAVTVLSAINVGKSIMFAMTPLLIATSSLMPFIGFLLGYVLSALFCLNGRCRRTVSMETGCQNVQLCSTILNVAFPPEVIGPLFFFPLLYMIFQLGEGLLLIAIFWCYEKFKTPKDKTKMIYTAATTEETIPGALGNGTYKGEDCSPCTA

ASBT [1] = biological target: T2, ASBT (Homo sapiens, UniProt Q12908); assay: Transport inhibition in ASBT-HEK293 cells; type: cell-based; conditions: substrate inhibitors, 1 min after 5 min preincubation
T2 construct: The full-length open reading frames of NTCP, ASBT, and SOAT were cloned; expressed in transfected cells; host or cells: Flp-In T-REX HEK293 (ASBT-HEK293), tetracycline-induced
T2 sequence (Q12908 1-348): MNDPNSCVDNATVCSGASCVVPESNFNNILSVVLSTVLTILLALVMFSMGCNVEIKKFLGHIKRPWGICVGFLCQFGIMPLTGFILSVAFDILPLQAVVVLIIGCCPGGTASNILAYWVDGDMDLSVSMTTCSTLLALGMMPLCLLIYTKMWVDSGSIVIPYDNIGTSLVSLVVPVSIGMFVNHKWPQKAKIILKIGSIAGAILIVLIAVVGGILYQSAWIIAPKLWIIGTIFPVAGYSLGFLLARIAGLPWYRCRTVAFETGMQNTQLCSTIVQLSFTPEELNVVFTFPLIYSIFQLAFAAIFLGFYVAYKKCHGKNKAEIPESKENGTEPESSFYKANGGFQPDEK
Experimental: Cells were washed three times with PBS and were preincubated with the respective inhibitor in sodium transport buffer for 5 min at 37°C. Uptake was initiated by adding the respective radiolabeled substrate to the well and incubating for a fixed time as indicated in the figures at 37°C. Transport was terminated by removing the transport buffer and washing five-times with ice-cold PBS. Cell monolayers were lysed in 1 N NaOH with 0.1% SDS and the cell-associated radioactivity and protein content was determined as described above. For uptake inhibition with the myr-preS1 peptide the sodium transport buffer contained additionally MEM-amino acid solution (ThermoFisher) at 1:50 dilution.
All transport or inhibition graphs were generated with GraphPad Prism 6.0 (GraphPad). Determination of IC50 values was done by nonlinear regression analysis using the equation log (inhibitor) vs. response settings. If not stated otherwise in the legends all data represent means ± SD of at least triplicate determinations of representative experiments.
FIGURE 3 Inhibition of NTCP, ASBT, and SOAT with substrate inhibitors. Transport of [^3H]TC, [^3H]TLC, and [^3H]DHEAS was analyzed in NTCP-HEK293, ASBT-HEK293, and SOAT-HEK293 cells in the presence of the substrate inhibitors TC, TLC, and DHEAS at increasing concentrations ranging from 100 nM till 1000 µM. After 5 min of preincubation with the respective inhibitory compound, 200 nM [^3H]TLC, [^3H]TC or [^3H]DHEAS were added for additional 1 min and the cell lysates were analyzed by liquid scintillation counting. Unspecific uptake of HEK293-FlpIn cells was set to 0%. Carrier-specific uptake without inhibitor was set to 100%.
Transport of [^3H]TC, [^3H]TLC, and [^3H]DHEAS was analyzed in NTCP-HEK293, ASBT-HEK293, and SOAT-HEK293 cells in the presence of different supposed non-substrate triterpenoid inhibitors as indicated at increasing concentrations ranging from 100 nM till 1000 µM. After 5 min of preincubation with the respective inhibitory compound, 1 µM [^3H]TLC, [^3H]TC or [^3H]DHEAS were added for additional 10 min at 37°C and the cell lysates were analyzed by liquid scintillation counting. Experiments performed without inhibitor were set to 100%. Means of negative controls were subtracted to calculate net transport rates (expressed as percentage of control). Data represent means ± SD of quadruplicate determinations of representative experiments.

ASBT [2] = biological target: T2, ASBT; assay: Substrate screening: sodium-dependent uptake of radiolabeled compounds in ASBT-HEK293 cells; type: cell-based; conditions: radiolabeled bile acids 1 µM, 30 min, ASBT-HEK293, vs sodium-free control
Experimental: Stably SLC10 transporter transfected NTCP-HEK293, ASBT-HEK293, SOAT-HEK293 cells and the HEK293-FlpIn maternal cell line were seeded on 24-well plates (if not stated otherwise for individual assays). Well plates were coated with poly-D-lysine prior to seeding of 125,000 cells per well. Cells were grown with 1 ml of standard medium per well with or without tetracycline ([…]) for 72 h to induce carrier expression before respective assays were started. HEK293-FlpIn cells were cultivated with standard medium and served as control.
Uptake experiments were initiated by replacing the preincubation buffer by 500 μL transport buffer containing the radiolabeled test compound and were performed at 37°C. Transport was terminated by removing the transport buffer and washing five-times with ice-cold PBS. Cell monolayers were lysed in 1 N NaOH with 0.1% SDS and the cell-associated radioactivity was determined by liquid scintillation counting.
FIGURE 1 Comparative substrate screening for bile acids and sulfated steroids in NTCP-, ASBT-, and SOAT-HEK293 cells. Transport assays were performed with the indicated substrates in NTCP-HEK293, ABST-HEK293, SOAT-HEK293, and HEK293-FlpIn cells. Cells were washed and equilibrated with Na^+-containing transport buffer (filled bars) or with Na^+-free transport buffer (open bars) at 37°C. For uptake, cells were incubated with radiolabeled steroid compounds at a final concentration of 200 nM in Na^+-containing or Na^+-free transport buffer for 10 min. Radiolabeled bile acids were used at 1 µM concentrations and transport was analyzed over 30 min. HEK293-FlpIn cells served as additional controls. After the indicated time intervals, cells were washed with ice-cold PBS, lysed and subjected to liquid scintillation counting. […] 3-OH, trihydroxylated BAs; 2-OH, dihydroxylated BAs; 1-OH, monohydroxylated BAs.

[3] = NTCP IC50, substrate [3H]DHEAS, 200 nM [3H]DHEAS
[4] = NTCP IC50, substrate [3H]TC, 200 nM [3H]TC
[5] = NTCP IC50, substrate [3H]TLC, 200 nM [3H]TLC

SMILES | IC50 (NTCP; [3]) [µM] | IC50 (NTCP; [4]) [µM] | IC50 (NTCP; [5]) [µM] | IC50 (ASBT [1]; ASBT IC50, substrate [3H]TC, 200 nM [3H]TC) [µM] | IC50 (ASBT [1]; ASBT IC50, substrate [3H]TLC, 200 nM [3H]TLC) [µM] | Transport activity grading ASBT (mean uptake) (ASBT [2]) | IC50 (ASBT [1]; 200 nM [3H]TC, read-out: ASBT IC50, substrate [3H]TC) [µM] | IC50 (ASBT [1]; 200 nM [3H]TLC, read-out: ASBT IC50, substrate [3H]TLC) [µM]
C[C@]12CC[C@H](OS(=O)(=O)O)CC1=CC[C@@H]1[C@@H]2CC[C@]2(C)C(=O)CC[C@@H]12 [DHEAS, Dehydroepiandrosterone sulfate] | 3.4 | 21.5 | 432 | 453 | > 1000 |  |  | 
C[C@H](CCC(=O)NCCS(=O)(=O)O)[C@H]1CC[C@H]2[C@@H]3[C@H](O)C[C@@H]4C[C@H](O)CC[C@]4(C)[C@H]3C[C@H](O)[C@]12C [Taurocholic acid] |  |  |  |  |  | ++ (“++” for values between 500 and 1000) |  | 
C[C@H](CCC(=O)NCCS(=O)(=O)O)[C@H]1CC[C@H]2[C@@H]3CC[C@@H]4C[C@H](O)CC[C@]4(C)[C@H]3CC[C@]12C [Taurolithocholic acid] | 1.8 | 1.7 | 1.4 |  |  | +++ (“+++” for values above 1000 pmol/mg protein/30 min) | 1.9 | 4
